Results reported in patent publication US20120276577A1, “Method for Determining the Susceptibility of a Cell Strain to Drugs” (ASSISTANCE PUBLIQUE - HOPITAUX DE PARIS, priority 2009, published 2012).
Where two headings read alike, the source gives them in different places.

Columns and labels:
Candida albicans [1] = assay: MALDI-TOF MS minimal profile change concentration (MPCC) determination; type: cell-based; details: for FCZ MPCCs: 15 h culture, MALDI-TOF MS
Protocol: Fluconazole (FCZ) pure powder (Sigma Chemical CO., Saint-Louis, Mo., USA) was dissolved in pure water. Serial dilutions of drug (concentration ranged from 256 to 0.25 μg/ml), made into RPMI 1640 medium (with glutamine and without bicarbonate, Invitrogen) buffered with MOPS (0.165M) (Sigma Chemical CO., Saint-Louis, Mo., USA) and adjusted to pH 7 with sodium hydroxide (5N), were dispensed in 600 μl aliquots into sterile 24-well flat-bottomed microtiter plates.
After cultivation during 48 h at 37° C. on Sabouraud agar medium, yeasts cells were transferred into RPMI 1640 medium (with glutamine but without bicarbonate, Invitrogen) buffered with MOPS (0.165M) (Sigma Chemical CO., Saint-Louis, Mo., USA), and adjusted to pH 7 with sodium hydroxide (5N). Then, 600 μl of RPMI with yeast (2.106 yeasts/imp were added to 600 μl of RPMI with FCZ into microtiter plates (final FCZ concentration ranged from 128 to 0.125 μg/ml), or in RPMI alone as negative control. Culture was performed in a 30° C. incubator for 15 hours, with continuous agitation.
Yeast extraction was performed as follows: • (1) samples were centrifuged and the supernatant removed before the pellet was washed twice in pure water; • (2) the pellet was then resuspended in 300 μL of pure water, and 900 μL of ethanol were then added; • (3) after another round of centrifugation, 50 μL of 70% formic acid and 50 μL pure acetonitrile were added to the residual pellet and subsequent solution was repeatedly and thoroughly vortexed before a final centrifugation. Each centrifugation was performed at 10 000 rpm for 10 minutes at room temperature.
The supernatant was distributed (0.5 μl droplet) in duplicate on a MALDI AnchorChip sample slide (Bruker-Daltonics, Bremen, Germany), then air-dried. The α-cyano-4-hydroxycinnamic acid (CHCA) matrix (Bruker-Daltonics), prepared at a concentration of 50 mg/ml in 50% acetonitrile and 50% water with 0.1% TFA, was sonicated for 5 min before being spotted (0.5 μl) over the dried sample. A DH5a Escherichia coil protein extract (Bruker-Daltonics) was deposited on the calibration spot of the Anchorchip for external calibration. MALDI analysis were performed on a Bruker Autoflex I MALDI TOF mass spectrometer with a nitrogen laser (337 nm) operating in linear mode with delayed extraction (260 ns) at 20 kV accelerating voltage. Each spectrum was automatically collected in the positive ion mode as an average of 500 laser shots (50 laser shots at 10 different spot positions). Laser energy was set just above the threshold for ion production. Mass range between 3,000 and 20,000 m/z (ratio mass/charge) was selected to collect the signals with the AutoXecute tool of flexControl acquisition software (Version 2.4; Bruker-Daltonics). Only peaks with a signal/noise ratio >3 were considered. […] For each cultivation condition, we collected mass spectra from 3 biological replicates and 2 technical replicates.
Data obtained from the flex control acquisition software were a set of lists of mass/charge peaks and corresponding intensities, one list for each spectrum. For each FCZ concentration (11 FCZ concentrations and without FCZ), 6 spectra, obtained from 3 biological replicates tested in duplicate, were collected, so the whole initial set of data consisted of 72 spectra.
Alignment was performed using a method based on the mean spectrum, using an approach similar to that recommended by Coombes et al. (Coombes K R, Baggerly K A, and Morris J S: Pre-Processing Mass Spectrometry Data. Fundamentals of Data Mining in Genomics and Proteomics, W Dubitzky, M Granzow, and D Berrar, eds. Kluwer, Boston, 79-99 (2007)).
The mean spectrum of the 72 spots was computed, a simple peak detection algorithm was run on the mean spectrum, and a selection of the final peak locations was based on the mean intensity of the peak. For each spectrum, the peaks corresponding to the final peak locations were retained for the statistical analysis. […]

Candida albicans [2] = details: CLSI, cited from earlier work
[3] = C. albicans clinical isolate DSY281 (group A)
[4] = C. albicans clinical isolate DSY284 (group A)
[5] = C. albicans clinical isolate DSY289 (group F)
[6] = C. albicans clinical isolate DSY290 (group G)
[7] = C. albicans clinical isolate DSY292 (group G)
[8] = C. albicans clinical isolate DSY 294 (group B)
[9] = C. albicans clinical isolate DSY296 (group B)
[10] = C. albicans clinical isolate DSY347 (group F)
[11] = C. albicans clinical isolate DSY544 (group C)
[12] = C. albicans clinical isolate DSY2260 (group D)
[13] = C. albicans clinical isolate DSY2262 (group D)
[14] = C. albicans clinical isolate DSY2284 (group H)
[15] = C. albicans clinical isolate DSY2285 (group H)
[16] = C. albicans clinical isolate DSY2321 (group E)
[17] = C. albicans clinical isolate DSY2322 (group E)
[18] = C. albicans clinical isolate DYS775 (group C)
[19] = C. albicans reference strain ATCC 90028

OC(Cn1cncn1)(Cn1cncn1)c1ccc(F)cc1F [FCZ, Fluconazole]
FCZ MPCCs (Candida albicans [1]; [3]): 0.5 µg/mL
FCZ MPCCs (Candida albicans [1]; [4]): 8 µg/mL
FCZ MPCCs (Candida albicans [1]; [5]): 128 µg/mL
FCZ MPCCs (Candida albicans [1]; [6]): 0.25 µg/mL
FCZ MPCCs (Candida albicans [1]; [7]): 128 µg/mL
FCZ MPCCs (Candida albicans [1]; [8]): 0.25 µg/mL
FCZ MPCCs (Candida albicans [1]; [9]): 128 µg/mL
FCZ MPCCs (Candida albicans [1]; [10]): 0.125 µg/mL
FCZ MPCCs (Candida albicans [1]; [11]): 0.25 µg/mL
FCZ MPCCs (Candida albicans [1]; [12]): 4 µg/mL
FCZ MPCCs (Candida albicans [1]; [13]): 32 µg/mL
FCZ MPCCs (Candida albicans [1]; [14]): 0.5 µg/mL
FCZ MPCCs (Candida albicans [1]; [15]): 16 µg/mL
FCZ MPCCs (Candida albicans [1]; [16]): 0.5 µg/mL
FCZ MPCCs (Candida albicans [1]; [17]): 16 µg/mL
FCZ MPCCs (Candida albicans [1]; [18]): 64 µg/mL
FCZ MPCCs (Candida albicans [1]; [19]): 0.25 µg/mL
mass spectrometry spectra compared with the control culture (Candida albicans [1]; DSY2260 C. albicans, cultures exposed up to 2 μg/ml FCZ, 15 h): indistinguishable
FCZ MICs (Candida albicans [2]; [3]): 1 µg/mL
FCZ MICs (Candida albicans [2]; [4]): 32 µg/mL
FCZ MICs (Candida albicans [2]; [5]): 128 µg/mL
FCZ MICs (Candida albicans [2]; [6]): 0.5 µg/mL
FCZ MICs (Candida albicans [2]; [7]): 128 µg/mL
FCZ MICs (Candida albicans [2]; [8]): 0.25 µg/mL
FCZ MICs (Candida albicans [2]; [9]): 128 µg/mL
FCZ MICs (Candida albicans [2]; [10]): 0.25 µg/mL
FCZ MICs (Candida albicans [2]; [11]): 0.5 µg/mL
FCZ MICs (Candida albicans [2]; [12]): 8 µg/mL
FCZ MICs (Candida albicans [2]; [13]): 64 µg/mL
FCZ MICs (Candida albicans [2]; [14]): 0.25 µg/mL
FCZ MICs (Candida albicans [2]; [15]): 16 µg/mL
FCZ MICs (Candida albicans [2]; [16]): 0.25 µg/mL
FCZ MICs (Candida albicans [2]; [17]): 16 µg/mL
FCZ MICs (Candida albicans [2]; [18]): 128 µg/mL
FCZ MICs (Candida albicans [2]; [19]): 0.25 µg/mL
